Measurements: PubChem BioAssay AID256 (DTP/NCI, 2004)
“And” between values parts separate entries of the source, which are not always exact repeats. Identical values can stand only once. Inconclusive results and toxic doses are left out. Residues, ends and D or L forms follow the SMILES beside them. *: point of attachment. Cbz = O=C(OCc1ccccc1)*; Bn = c1ccc(C*)cc1

Test system: CD2F1 mice, L1210 leukemia ip, survival T/C
Experiment: NCI In Vivo Anticancer Drug Screen. Data for tumor model L1210 Leukemia (intraperitoneal) in CD2F1 (CDF1) mice
Details: higher = longer survival
Summary of the method: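 Tumor-bearing mice (transplanted tumor) were split into treated and vehicle control groups, and the measured endpoint of each treated group was divided by that of its vehicle controls.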

[1] = endpoint: mean survival time, dose: 100.0 mg/kg/injection, schedule: Q01DX009 (ip), vehicle: saline
[2] = endpoint: mean survival time, dose: 100.0 mg/kg/injection, schedule: Q04DX003 (ip), vehicle: saline
[3] = endpoint: mean survival time, dose: 200.0 mg/kg/injection, schedule: Q01DX009 (ip), vehicle: saline
[4] = endpoint: mean survival time, dose: 200.0 mg/kg/injection, schedule: Q04DX003 (ip), vehicle: saline
[5] = endpoint: mean survival time, dose: 400.0 mg/kg/injection, schedule: Q04DX003 (ip), vehicle: saline
[6] = endpoint: mean survival time, dose: 100.0 mg/kg/injection, schedule: Q01DX001 (ip), vehicle: saline with Tween-80
[7] = endpoint: mean survival time, dose: 200.0 mg/kg/injection, schedule: Q01DX001 (ip), vehicle: saline with Tween-80
[8] = endpoint: mean survival time, dose: 400.0 mg/kg/injection, schedule: Q01DX001 (ip), vehicle: saline with Tween-80
[9] = endpoint: mean survival time, dose: 100.0 mg/kg/injection, schedule: Q04DX003 (ip), vehicle: saline with Tween-80
[10] = endpoint: mean survival time, dose: 200.0 mg/kg/injection, schedule: Q04DX003 (ip), vehicle: saline with Tween-80
[11] = endpoint: mean survival time, dose: 400.0 mg/kg/injection, schedule: Q04DX003 (ip), vehicle: saline with Tween-80
[12] = endpoint: mean survival time, dose: 50.0 mg/kg/injection, schedule: Q01DX009 (ip), vehicle: saline
[13] = endpoint: mean survival time, dose: 100.0 mg/kg/injection, schedule: Q01DX001 (ip), vehicle: Klucel (hydroxypropylcellulose) (HPC)
[14] = endpoint: mean survival time, dose: 50.0 mg/kg/injection, schedule: Q01DX009 (ip), vehicle: saline with Tween-80
[15] = endpoint: mean survival time, dose: 100.0 mg/kg/injection, schedule: Q01DX009 (ip), vehicle: saline with Tween-80
[16] = endpoint: mean survival time, dose: 200.0 mg/kg/injection, schedule: Q01DX009 (ip), vehicle: saline with Tween-80
[17] = endpoint: mean survival time, dose: 400.0 mg/kg/injection, schedule: Q01DX009 (ip), vehicle: saline with Tween-80

## CC(S)CN (centres undefined)
[1]
  T/C: 96 % of control
[2]
  T/C: 101 % of control
[3]
  T/C: 94 % of control
[4]
  T/C: 98 % of control
endpoint: mean survival time, dose: 400.0 mg/kg/injection, schedule: Q01DX009 (ip), vehicle: saline
  T/C: 101 % of control
[5]
  T/C: 104 % of control

## O=[N+]([O-])c1ccc2c(c1)Cc1cc(N(CBr)CBr)ccc1-2
[2]
  T/C: 109 % of control
[4]
  T/C: 107 % of control
[5]
  T/C: 121 % of control

## CC1(C)N=C(N)N=C(N)N1c1ccc(/C=C/C(=O)Nc2cccc(S(=O)(=O)F)c2)cc1
[6]
  T/C: 89 % of control
[7]
  T/C: 95 % of control
[8]
  T/C: 92 % of control

## CC(C)(C)NC(=O)C1C2CCC(C2)C1C(=O)NC(C)(C)C (centres undefined)
[9]
  T/C: 98 % of control
[10]
  T/C: 102 % of control
[11]
  T/C: 98 % of control

## NC(CCC(=O)NCc1ccc(S(=O)(=O)F)cc1)C(=O)O (centres undefined)
[12]
  T/C: 92 % of control
[1]
  T/C: 96 % of control
[3]
  T/C: 92 % of control

## COc1cc(CNCc2ccccc2)ccc1O
endpoint: mean survival time, dose: 75.0 mg/kg/injection, schedule: Q01DX001 (ip), vehicle: other
  T/C: 90 % of control
endpoint: mean survival time, dose: 150.0 mg/kg/injection, schedule: Q01DX001 (ip), vehicle: other
  T/C: 93 % of control
endpoint: mean survival time, dose: 300.0 mg/kg/injection, schedule: Q01DX001 (ip), vehicle: other
  T/C: 95 % of control

## CNc1ccc(CSc2ccccc2)cc1
[13]
  T/C: 96 % of control
endpoint: mean survival time, dose: 200.0 mg/kg/injection, schedule: Q01DX001 (ip), vehicle: Klucel (hydroxypropylcellulose) (HPC)
  T/C: 96 % of control
endpoint: mean survival time, dose: 400.0 mg/kg/injection, schedule: Q01DX001 (ip), vehicle: Klucel (hydroxypropylcellulose) (HPC)
  T/C: 87 % of control

## O=C(O)/C=C/c1cccs1
endpoint: mean survival time, dose: 50.0 mg/kg/injection, schedule: Q01DX009 (ip), vehicle: Klucel (hydroxypropylcellulose) (HPC)
  T/C: 101 % of control
endpoint: mean survival time, dose: 100.0 mg/kg/injection, schedule: Q01DX009 (ip), vehicle: Klucel (hydroxypropylcellulose) (HPC)
  T/C: 101 % of control
endpoint: mean survival time, dose: 200.0 mg/kg/injection, schedule: Q01DX009 (ip), vehicle: Klucel (hydroxypropylcellulose) (HPC)
  T/C: 96 % of control

## CC(=O)N(C)c1ccc(NC(=O)Nc2ccc(C)c([N+](=O)[O-])c2)cc1
[14]
  T/C: 102 % of control
[15]
  T/C: 94 % of control
[16]
  T/C: 90 % of control

## NC(=O)c1nnc(-c2ccccn2)[nH]c1=O
endpoint: mean survival time, dose: 25.0 mg/kg/injection, schedule: Q01DX001 (ip), vehicle: Klucel (hydroxypropylcellulose) (HPC)
  T/C: 94 % of control
endpoint: mean survival time, dose: 50.0 mg/kg/injection, schedule: Q01DX001 (ip), vehicle: Klucel (hydroxypropylcellulose) (HPC)
  T/C: 98 % of control
[13]
  T/C: 98 % of control

## COC1=C(OC)C(=O)C(SCc2ccc(OC)cc2)=CC1=O
endpoint: mean survival time, dose: 6.25 mg/kg/injection, schedule: Q01DX009 (ip), vehicle: saline with Tween-80
  T/C: 102 % of control
endpoint: mean survival time, dose: 12.5 mg/kg/injection, schedule: Q01DX009 (ip), vehicle: saline with Tween-80
  T/C: 91 % of control
endpoint: mean survival time, dose: 25.0 mg/kg/injection, schedule: Q01DX009 (ip), vehicle: saline with Tween-80
  T/C: 87 % of control

## CC1(C)CC(C)(c2ccc(O)cc2)c2ccccc2O1 (centres undefined)
[15]
  T/C: 90 % of control
[9]
  T/C: 92 % of control
[16]
  T/C: 92 % of control
[10]
  T/C: 92 % of control
[17]
  T/C: 91 % of control
[11]
  T/C: 90 % of control

## CCOc1nc(OCC)nc(-c2cccn2-c2ccccc2)n1
[15]
  T/C: 95 % of control
[9]
  T/C: 106 % of control
[16]
  T/C: 87 % of control
[10]
  T/C: 100 % of control
[17]
  T/C: 93 % of control
[11]
  T/C: 98 % of control

## CN(N=O)C(=O)NC1C(CO)OC2OC(C)(C)OC21 (centres undefined)
endpoint: mean survival time, dose: 100.0 mg/kg/injection, schedule: Q04DX003 (ip), vehicle: saline sonified
  T/C: 94 % of control
endpoint: mean survival time, dose: 132.0 mg/kg/injection, schedule: Q01DX009 (ip), vehicle: saline
  T/C: 151 % of control
[3]
  T/C: 198 % of control
endpoint: mean survival time, dose: 200.0 mg/kg/injection, schedule: Q04DX003 (ip), vehicle: saline sonified
  T/C: 100 % of control
endpoint: mean survival time, dose: 300.0 mg/kg/injection, schedule: Q01DX009 (ip), vehicle: saline
  T/C: 105 % of control
endpoint: mean survival time, dose: 400.0 mg/kg/injection, schedule: Q04DX003 (ip), vehicle: saline sonified
  T/C: 107 % of control

## [NH-]NC(=S)[S-].[NH-]NC(=S)[S-].[Pd]
[9]
  T/C: 91 % of control

## COC(=O)C(Cc1ccccc1)NC(=O)C(CSCc1ccccc1)NC(=O)OCc1ccccc1 (centres undefined) (Cbz-Cys(Bn)-Phe-OMe; configuration not given here)
[6]
  T/C: 93 % of control
[15]
  T/C: 91 % of control
[7]
  T/C: 95 % of control
[8]
  T/C: 89 % of control

## CCOc1cccc(Cc2cn(Cc3ccc(NC(=O)c4ccc(S(=O)(=O)F)cc4)cc3)c(=O)[nH]c2=O)c1
[6]
  T/C: 101 % of control
[7]
  T/C: 95 % of control
[8]
  T/C: 95 % of control

## COc1ccc(OC)c(NC(=O)Nc2ccc(C)c([N+](=O)[O-])c2)c1
[14]
  T/C: 98 % of control
[15]
  T/C: 94 % of control
[16]
  T/C: 94 % of control

## c1ccc(-c2nc3ccc4ccccc4c3nc2-c2ccccc2)cc1
[15]
  T/C: 94 % of control
[9]
  T/C: 98 % of control
[16]
  T/C: 96 % of control
[10]
  T/C: 92 % of control
[17]
  T/C: 96 % of control
[11]
  T/C: 92 % of control

## Nc1ccc(N2CCNCC2)cc1
[9]
  T/C: 104 % of control
[10]
  T/C: 101 % of control

## Fc1ccc(Nc2c3ccccc3nc3ccccc23)cc1
[15]
  T/C: 96 % of control

## CCC1(O)C(=O)OCc2c1cc1n(c2=O)Cc2cc3cc(O)c(O)cc3nc2-1 (centres undefined)
endpoint: median survival time, dose: 10.0 mg/kg/injection, schedule: Q04DX002 (ip), vehicle: saline with Tween-80
  T/C: 153 % of control
endpoint: median survival time, dose: 40.0 mg/kg/injection, schedule: Q04DX002 (ip), vehicle: saline with Tween-80
  T/C: 157 % of control
endpoint: median survival time, dose: 80.0 mg/kg/injection, schedule: Q04DX002 (ip), vehicle: saline with Tween-80
  T/C: 173 % of control

## [O-][n+]1cccc(CCc2ccc[n+]([O-])c2)c1
[12]
  T/C: 100 % of control
[1]
  T/C: 104 % of control
[3]
  T/C: 100 % of control

## CCC(C)C(C(=O)OCC[N+](C)(CC)CC)c1ccc(C)c(C)c1 (centres undefined)
endpoint: mean survival time, dose: 12.5 mg/kg/injection, schedule: Q04DX003 (ip), vehicle: saline
  T/C: 93 % of control
endpoint: mean survival time, dose: 25.0 mg/kg/injection, schedule: Q04DX003 (ip), vehicle: saline
  T/C: 101 % of control
endpoint: mean survival time, dose: 50.0 mg/kg/injection, schedule: Q04DX003 (ip), vehicle: saline
  T/C: 97 % of control

## O=C1c2cccc3cc([N+](=O)[O-])cc(c23)C(=O)N1CCN1CCCC1
endpoint: mean survival time, dose: 1.5 mg/kg/injection, schedule: Q01DX009 (ip), vehicle: saline with Tween-80
  T/C: 107 % of control
endpoint: mean survival time, dose: 1.5 mg/kg/injection, schedule: Q01DX009 (ip), vehicle: saline
  T/C: 100 % of control
endpoint: mean survival time, dose: 3.0 mg/kg/injection, schedule: Q01DX009 (ip), vehicle: saline with Tween-80
  T/C: 113 % of control
endpoint: mean survival time, dose: 3.0 mg/kg/injection, schedule: Q01DX009 (ip), vehicle: saline
  T/C: 100 % of control
endpoint: mean survival time, dose: 6.0 mg/kg/injection, schedule: Q01DX009 (ip), vehicle: saline
  T/C: 113 % of control
endpoint: mean survival time, dose: 12.0 mg/kg/injection, schedule: Q01DX009 (ip), vehicle: saline
  T/C: 115 % of control
endpoint: mean survival time, dose: 24.0 mg/kg/injection, schedule: Q01DX009 (ip), vehicle: saline with Tween-80
  T/C: 91 % of control
endpoint: mean survival time, dose: 24.0 mg/kg/injection, schedule: Q01DX009 (ip), vehicle: saline
  T/C: 111 % of control
endpoint: median survival time, dose: 1.56 mg/kg/injection, schedule: Q01DX009 (ip), vehicle: saline with Tween-80
  T/C: 96 % of control
endpoint: median survival time, dose: 3.12 mg/kg/injection, schedule: Q01DX009 (ip), vehicle: saline with Tween-80
  T/C: 101 % of control and 107 % of control
endpoint: median survival time, dose: 6.25 mg/kg/injection, schedule: Q01DX009 (ip), vehicle: saline with Tween-80
  T/C: 104 % of control and 107 % of control
endpoint: median survival time, dose: 12.5 mg/kg/injection, schedule: Q01DX009 (ip), vehicle: saline with Tween-80
  T/C: 117 % of control and 119 % of control
endpoint: median survival time, dose: 50.0 mg/kg/injection, schedule: Q01DX009 (ip), vehicle: saline with Tween-80
  T/C: 86 % of control

## O=[N+]([O-])c1ccc(N=C(Cl)N2CCCCC2)cc1
endpoint: mean survival time, dose: 100.0 mg/kg/injection, schedule: Q01DX001 (ip), vehicle: saline
  T/C: 109 % of control
endpoint: mean survival time, dose: 200.0 mg/kg/injection, schedule: Q01DX001 (ip), vehicle: saline
  T/C: 103 % of control
endpoint: mean survival time, dose: 400.0 mg/kg/injection, schedule: Q01DX001 (ip), vehicle: saline
  T/C: 107 % of control
